The record followed here is patent US9718760B2, “Plasminogen activator inhibitor-1 inhibitors and methods of use thereof” (THE REGENTS OF THE UNIVERSITY OF MICHIGAN, priority 2012, dated 2017).

The structures appear in SMILES notation. Where “and” joins values, the source holds several entries; their conditions need not be identical. Equal entries are not always repeated.

One assay deals with recombinant active human PAI-1 (Homo sapiens (Human), UniProt P05121). Description: Fluorometric PAI-1/uPA IC50 plate assay at pH 7.4. The assay is classed as biochemical. The note with it: physiologic buffer (40 mM HEPES, 100 mM NaCl, 0.05% Tween-20, 10% DMSO), read-out: PAI-1/uPA IC50 in buffer. As to the method: To determine the efficacy of various synthesized compounds as PAI-1 inhibitors, a fluorometric plate assay was carried out to measure the half maximal inhibitory concentration (IC50) of these compounds on recombinant active human PAI-1 in vitro. An IC50 is a measure of the effectiveness of a compound in inhibiting biological or biochemical function. Stated another way, IC50 represents the concentration of a drug that is required for 50% inhibition in vitro.
Chain of recombinant active human PAI-1 (P05121 24-402): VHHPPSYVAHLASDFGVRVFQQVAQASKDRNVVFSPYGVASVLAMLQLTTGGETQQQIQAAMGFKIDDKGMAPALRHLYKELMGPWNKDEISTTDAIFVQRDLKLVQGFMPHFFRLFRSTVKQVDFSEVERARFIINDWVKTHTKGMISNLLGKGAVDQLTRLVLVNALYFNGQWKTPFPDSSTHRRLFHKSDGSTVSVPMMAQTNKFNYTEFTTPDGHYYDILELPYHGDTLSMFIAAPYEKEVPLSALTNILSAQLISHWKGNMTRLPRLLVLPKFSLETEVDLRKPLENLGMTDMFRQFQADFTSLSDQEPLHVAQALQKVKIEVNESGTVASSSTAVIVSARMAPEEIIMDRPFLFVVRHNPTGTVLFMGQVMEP
PAI-1 inhibitor compounds were dissolved in DMSO to a final concentration of (10-50 mM), depending upon solubility. Compounds were then diluted in physiologic buffer (40 mM HEPES, 100 mM NaCl, 0.05% Tween-20, pH7.4) containing 10% DMSO and a dilution series (from 0 to 1000 uM depending on solubility) was prepared. 80 μL of compound was added per well to a 96-well black, opaque microplate in duplicate. 10 μL of 20 nM Recombinant active human PAI-1 (Molecular Innovations) in physiologic buffer (40 mM HEPES, 100 mM NaCl, 0.05% Tween-20, 10% DMSO, pH 7.4), or […] physiologic buffer with 10% human plasma, was added and the mixture was agitated for 15 minutes at room temperature. 10 μL of 25 nM uPA (Rheotromb®) was added to each reaction well and the plate was agitated for an additional 30 minutes at room temperature. Tripeptide aminomethylcoumarin Gly-Gly-Arg-AMC (Calbiochem) fluorogenic substrate (100 μL of 100 μM) was then added and residual uPA activity was determined based upon cleavage of this substrate. The rate of AMC release by uPA (fluorescence) was measured at an excitation wavelength of 370 nm and an emission wavelength of 440 nm. Controls included PAI-1 and uPA in the absence of compound and uPA alone. Percent PAI-1 inhibition was calculated using the following formula: [(uPA alone-uPA/PAI-1+ compound)/(uPA alone-PAI-1/uPA)]*100%. The IC50 was calculated using Graphit (IC50 0-100%).
For the compound `O=C1Cc2cc(C(=O)CNCCNCC(=O)c3ccc4c(c3)CC(=O)N4)ccc2N1` [C225, 5,5′-(2,2′-(ethane-1,2-diylbis(azanediyl))bis(acetyl))bis(indolin-2-one)], the IC50 is 163 µM.

`COc1ccc(-c2nc(-c3ccc4c(c3)CC(=O)N4)cs2)cc1OC` [C227, 5-(2-(3,4-dimethoxyphenyl)thiazol-4-yl)indolin-2-one]: the IC50 amounted to 205 µM.

Turning to `O=C1Cc2cc(-c3csc(-c4ccc(O)c(O)c4)n3)ccc2N1` [C228], the IC50 came out at 14.8 µM.

In the case of `O=C1Cc2cc(S(=O)(=O)NCCc3ccccc3)ccc2N1` [C229, 2-oxo-N-phenethylindoline-5-sulfonamide], the IC50 was 1290 µM.

In the case of `CCCCCCNC(=O)C(=O)NN` [C240], the IC50 is 3770 µM and 3910 µM.

For the compound `CCCCCNC(=O)C(=O)NN` [C241], the IC50 was 1930 µM.

Take `COc1ccc(CCNC(=O)C(=O)NN)cc1OC` [C246]: the IC50 is 2560 µM.

For the compound `NNC(=O)C(=O)NCc1ccc(F)cc1` [C248], the IC50 was 1190 µM and 1310 µM.

`NNC(=O)C(=O)NCc1ccc(Cl)c(C(F)(F)F)c1` [C251]: the IC50 was 68.6 µM and 76 µM.

`NNC(=O)C(=O)NCc1ccc(OC(F)(F)F)cc1` [C255]: the IC50 is 2060 µM and 1780 µM.

As to `CCOC(=O)C(=O)NCc1ccc(Cl)c(C(F)(F)F)c1` [C256, ethyl 2-((4-chloro-3-(trifluoromethyl)benzyl)amino)-2-oxoacetate], the IC50 was 1040 µM and 1350 µM.

Take `CCOC(=O)C(=O)NCc1ccc(Br)cc1` [C259]: the IC50 was 2890 µM and 3140 µM.

Take `NNC(=O)C(=O)NCc1ccc(Br)cc1` [C260]: the IC50 was 147 µM and 187 µM.

For the compound `NNC(=O)C(=O)NCc1ccc(F)c(C(F)(F)F)c1` [C261], the IC50 is 102 µM and 103 µM.

Take `Cc1cc(CNC(=O)C(=O)NN)ccc1F` [C262]: the IC50 was 170 µM and 187 µM.

In the case of `NNC(=O)C(=O)NCc1ccccc1F` [C263], the IC50 was determined as 2840 µM.

In the case of `NNC(=O)C(=O)NCc1cccc(F)c1` [C264], the IC50 was 2120 µM.

For the compound `CCOC(=O)C(=O)NCc1cccc(Cl)c1` [C265], the IC50 came out at 4020 µM.

With `NNC(=O)C(=O)NCc1cccc(Cl)c1` [C266], the IC50 is 568 µM and 549 µM.

As for `CCOC(=O)C(=O)NCc1cccc(C(F)(F)F)c1` [C267], the IC50 amounted to 3790 µM.

With `NNC(=O)C(=O)NCc1cccc(OC(F)(F)F)c1` [C268], the IC50 is 135 µM and 134 µM.

With `COC(=O)CCC(=O)NCc1ccc(F)c(C(F)(F)F)c1` [C276], the IC50 is 1440 µM.

Consider `COC(=O)CCC(=O)NCc1ccc(Cl)c(C(F)(F)F)c1` [C277], for which the IC50 is 751 µM and 719 µM.

As for `NNC(=O)CCC(=O)NCc1ccc(Cl)c(C(F)(F)F)c1` [C278], the IC50 is 640 µM and 642 µM.

In the case of `Cc1oncc1C(=O)NCc1ccc(Cl)c(C(F)(F)F)c1` [C279], the IC50 was 539 µM and 593 µM.

The assay is the same for the next values; noted with them: physiologic buffer with 1.5% BSA (15 mg/mL), read-out: PAI-1/uPA IC50 in 1.5% BSA buffer.
With `CCCCCCNC(=O)C(=O)NN` [C240], the IC50 is 2220 µM and 1970 µM.

Consider `NNC(=O)C(=O)NCc1ccc(F)cc1` [C248], for which the IC50 is 652 µM and 646 µM.

On to `NNC(=O)C(=O)NCc1ccc(Cl)c(C(F)(F)F)c1` [C251], for which the IC50 is 110 µM and 123 µM.

`NNC(=O)C(=O)NCc1ccc(OC(F)(F)F)cc1` [C255]: the IC50 is 221 µM and 292 µM.

Take `CCOC(=O)C(=O)NCc1ccc(Cl)c(C(F)(F)F)c1` [C256, ethyl 2-((4-chloro-3-(trifluoromethyl)benzyl)amino)-2-oxoacetate]: the IC50 is 204 µM and 235 µM.

For `CCOC(=O)C(=O)NCc1ccc(Br)cc1` [C259], the IC50 was 625 µM and 760 µM.

As for `NNC(=O)C(=O)NCc1ccc(F)c(C(F)(F)F)c1` [C261], the IC50 is 68 µM and 86 µM.

Consider `Cc1cc(CNC(=O)C(=O)NN)ccc1F` [C262], for which the IC50 was 63 µM and 84 µM.

For `NNC(=O)C(=O)NCc1ccccc1F` [C263], the IC50 amounted to 1680 µM.

Regarding `NNC(=O)C(=O)NCc1cccc(F)c1` [C264], the IC50 came to 1180 µM.

Turning to `NNC(=O)C(=O)NCc1cccc(Cl)c1` [C266], the IC50 worked out at 126 µM.

Turning to `NNC(=O)C(=O)NCc1cccc(OC(F)(F)F)c1` [C268], the IC50 stood at 65 µM.

Take `COC(=O)CCC(=O)NCc1ccc(F)c(C(F)(F)F)c1` [C276]: the IC50 was determined as 428 µM.

`COC(=O)CCC(=O)NCc1ccc(Cl)c(C(F)(F)F)c1` [C277]: the IC50 was 165 µM and 158 µM.

Take `NNC(=O)CCC(=O)NCc1ccc(Cl)c(C(F)(F)F)c1` [C278]: the IC50 was 118 µM and 130 µM.

Turning to `Cc1oncc1C(=O)NCc1ccc(Cl)c(C(F)(F)F)c1` [C279], the IC50 is 545 µM and 504 µM.

Still in this assay, the particulars now being: physiologic buffer with 10% human plasma, read-out: PAI-1/uPA IC50 in 10% plasma buffer.
As to `CCCCCCNC(=O)C(=O)NN` [C240], the IC50 turned out to be 1210 µM.

Consider `NNC(=O)C(=O)NCc1ccc(F)cc1` [C248], for which the IC50 was 478 µM.

`NNC(=O)C(=O)NCc1ccc(Cl)c(C(F)(F)F)c1` [C251]: the IC50 is 108 µM.

Consider `NNC(=O)C(=O)NCc1ccc(OC(F)(F)F)cc1` [C255], for which the IC50 came out at 279 µM.

With `CCOC(=O)C(=O)NCc1ccc(Cl)c(C(F)(F)F)c1` [C256, ethyl 2-((4-chloro-3-(trifluoromethyl)benzyl)amino)-2-oxoacetate], the IC50 was 214 µM.

As for `CCOC(=O)C(=O)NCc1ccc(Br)cc1` [C259], the IC50 stood at 526 µM.

Consider `NNC(=O)C(=O)NCc1ccc(Br)cc1` [C260], for which the IC50 was found to be 525 µM.

For `NNC(=O)C(=O)NCc1ccc(F)c(C(F)(F)F)c1` [C261], the IC50 was 69 µM.

Take `Cc1cc(CNC(=O)C(=O)NN)ccc1F` [C262]: the IC50 was 86 µM.

Regarding `NNC(=O)C(=O)NCc1ccccc1F` [C263], the IC50 was determined as 1360 µM.

In the case of `NNC(=O)C(=O)NCc1cccc(F)c1` [C264], the IC50 was 1250 µM.

Take `NNC(=O)C(=O)NCc1cccc(Cl)c1` [C266]: the IC50 was determined as 219 µM.

With `NNC(=O)C(=O)NCc1cccc(OC(F)(F)F)c1` [C268], the IC50 worked out at 77 µM.

`COC(=O)CCC(=O)NCc1ccc(F)c(C(F)(F)F)c1` [C276]: the IC50 came out at 476 µM.

Regarding `COC(=O)CCC(=O)NCc1ccc(Cl)c(C(F)(F)F)c1` [C277], the IC50 was 148 µM and 142 µM.

`NNC(=O)CCC(=O)NCc1ccc(Cl)c(C(F)(F)F)c1` [C278]: the IC50 amounted to 142 µM.

With `Cc1oncc1C(=O)NCc1ccc(Cl)c(C(F)(F)F)c1` [C279], the IC50 worked out at 680 µM.
